Source: BindingDB's records for patent US20250313563 (The Broad Institute, 2025)
Several values for one entry are separate records, joined by “and”; a condition that tells them apart may be missing. Equal entries are not always repeated.

Key:
[1] = target: Glycogen synthase kinase-3 alpha (Homo sapiens, UniProt P49840); assay: TR-FRET Assay
Method in brief: (§1)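 Compound was preincubated 30 min in assay buffer before the kinase reaction, which was quenched with EDTA. Phosphorylation was detected by TR-FRET after adding a solution of 40 nM streptavidin-d2 and 2 nM Tb-labelled anti-pSer641 antibody.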

[2] = target: Glycogen synthase kinase-3 beta (Homo sapiens, UniProt P49841); assay: TR-FRET Assay
Glycogen synthase kinase-3 beta, sequence (P49841 whole entry): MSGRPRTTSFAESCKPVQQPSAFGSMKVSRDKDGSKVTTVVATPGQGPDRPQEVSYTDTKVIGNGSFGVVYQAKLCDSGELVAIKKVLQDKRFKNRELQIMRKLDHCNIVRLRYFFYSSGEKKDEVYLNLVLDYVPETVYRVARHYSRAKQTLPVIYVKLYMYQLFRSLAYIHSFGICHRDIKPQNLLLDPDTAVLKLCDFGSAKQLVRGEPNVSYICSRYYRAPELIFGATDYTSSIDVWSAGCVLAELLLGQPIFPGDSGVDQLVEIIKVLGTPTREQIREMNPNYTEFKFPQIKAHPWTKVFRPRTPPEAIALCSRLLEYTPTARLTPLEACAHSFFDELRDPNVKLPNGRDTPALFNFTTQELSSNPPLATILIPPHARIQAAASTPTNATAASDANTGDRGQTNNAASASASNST
Method in brief: as §1

Glycogen synthase kinase-3 alpha, sequence (P49840 whole entry): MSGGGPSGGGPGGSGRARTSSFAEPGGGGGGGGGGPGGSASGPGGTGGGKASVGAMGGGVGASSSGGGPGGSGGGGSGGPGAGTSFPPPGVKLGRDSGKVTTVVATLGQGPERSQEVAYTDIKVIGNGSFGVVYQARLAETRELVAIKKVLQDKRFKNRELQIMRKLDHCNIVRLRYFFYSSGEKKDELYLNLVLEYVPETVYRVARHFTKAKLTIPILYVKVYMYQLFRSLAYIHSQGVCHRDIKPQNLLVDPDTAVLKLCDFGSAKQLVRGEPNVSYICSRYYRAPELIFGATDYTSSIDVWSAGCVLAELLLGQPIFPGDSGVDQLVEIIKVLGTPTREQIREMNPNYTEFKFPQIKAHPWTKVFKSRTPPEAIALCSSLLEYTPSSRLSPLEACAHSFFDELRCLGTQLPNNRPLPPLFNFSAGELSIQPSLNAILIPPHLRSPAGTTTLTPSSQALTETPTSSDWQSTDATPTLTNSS

Row | Compound | IC50 [1] | IC50 [2]
1 | CC[C@@]1(c2cccc(-c3ccnn3C3CC3(F)F)c2)C2=CN=NC2NC2=C1C(=O)NC(C)(C)C2 (stereo not given in full) [US20250313563, Compound 950824] | < 100 nM and 100 to 1000 nM | < 100 nM and 100 to 1000 nM
2 | CC[C@]1(c2cccc(-c3cc(C)nn3C)c2)C2=C(N=NC2)NC2=C1C(=O)C(C)(C)C2 [US20250313563, Compound 950827] | > 5000 nM | > 5000 nM
3 | CC[C@@]1(c2cccc(C3CC3)c2)C2=CN=NC2NC2=C1C(=O)NC(C)(C)C2 (stereo not given in full) [US20250313563, Compound 950828] | < 100 nM and 1000 to 5000 nM | > 5000 nM
4 | CC[C@@]1(c2cccc(C3=CNN4CC=CN=C34)c2)C2=CN=NC2NC2=C1C(=O)NC(C)(C)C2 (stereo not given in full) [US20250313563, Compound 950830] | < 100 nM | 100 to 1000 nM
5 | CC[C@]1(c2cccc(C(F)(F)F)c2)C2=C(N=NC2)NC2=C1C(=O)CC2 [US20250313563, Compound 951565] | < 100 nM | 100 to 1000 nM
6 | CC[C@@]1(c2cccc(C(F)(F)F)c2)C2=C(N=NC2)NC2=C1C(=O)CC2 [US20250313563, Compound 951566] | 1000 to 5000 nM | > 5000 nM
7 | CC[C@]1(c2cccc(N(C)c3ncccn3)c2)C2=C(CC(C)(C)NC2=O)NC2N=NC(Cl)=C21 (stereo not given in full) [US20250313563, Compound 951592] | > 5000 nM | > 5000 nM
8 | CCC1(c2cccc(C(F)(F)F)c2)C2=CN=NC2NC2=C1C(=O)N(c1ncn(C)c1C)CC2 (stereo not given) [US20250313563, Compound 951598] | 100 to 1000 nM | > 5000 nM
9 | CC[C@@]1(c2cccc(-c3ccncc3F)c2)C2=C(CC(C)(C)NC2=O)NC2N=NC(C(F)F)=C21 (stereo not given in full) [US20250313563, Compound 951599] | 100 to 1000 nM | 100 to 1000 nM
10 | CC[C@@]1(c2cccc(Oc3ncccn3)c2)C2=C(CC(C)(C)NC2=O)NC2N=NC(Cl)=C21 (stereo not given in full) [US20250313563, Compound 951605] | 1000 to 5000 nM | > 5000 nM
11 | CC[C@]1(c2cccc(Oc3ncccn3)c2)C2=C(CC(C)(C)NC2=O)NC2N=NC(Cl)=C21 (stereo not given in full) [US20250313563, Compound 951606] | < 100 nM | < 100 nM and 100 to 1000 nM
12 | CC[C@]1(c2cccc(Oc3ncccn3)c2)C2=C(CC(C)(C)NC2=O)NC2N=NC(C(F)(F)F)=C21 (stereo not given in full) [US20250313563, Compound 951607] | < 100 nM | < 100 nM and 100 to 1000 nM
13 | CC[C@]1(c2cccc(-c3ccncc3F)c2)C2=C(CC(C)(C)NC2=O)NC2N=NC(C(F)F)=C21 (stereo not given in full) [US20250313563, Compound 951612] | < 100 nM and 100 to 1000 nM | < 100 nM and 1000 to 5000 nM
14 | CC[C@@]1(c2cccc(N(C)c3ncccn3)c2)C2=C(CC(C)(C)NC2=O)NC2N=NC(Cl)=C21 (stereo not given in full) [US20250313563, Compound 951618] | 100 to 1000 nM | 1000 to 5000 nM
15 | CC(C)S(=O)(=O)N1CCC2(CC1)C1=C(N=NC1)NC1=C2C(=O)CC(C)(C)[C@H]1F [US20250313563, Compound 951701] | < 100 nM and 100 to 1000 nM | < 100 nM and 1000 to 5000 nM
16 | CC[C@@]1(c2cccc(-c3cn(C)nc3C)c2)C2=C(N=NC2)NC2=C1C(=O)C(C)(C)C2 [US20250313563, Compound 951702] | 100 to 1000 nM | 100 to 1000 nM
17 | CC1(C)CC(=O)C2=C(NC3=C(CN=N3)C23CCN(S(=O)(=O)c2cccc(C(F)(F)F)c2)CC3)[C@@H]1F [US20250313563, Compound 951703] | < 100 nM and 100 to 1000 nM | < 100 nM and 1000 to 5000 nM
18 | CC1(C)CC(=O)C2=C(NC3=C(CN=N3)C23CCCCC3)[C@@H]1F [US20250313563, Compound 951705] | < 100 nM | < 100 nM
19 | CC[C@@]1(c2cccc(-c3cn(C)nc3C3CC3)c2)C2=CN=NC2NC2=C1C(=O)NC(C)(C)C2 (stereo not given in full) [US20250313563, Compound 951706] | < 100 nM | < 100 nM
20 | CC[C@@]1(c2cccc(-c3cnn(C4CCCCC4)c3)c2)C2=CN=NC2NC2=C1C(=O)NC(C)(C)C2 (stereo not given in full) [US20250313563, Compound 951707] | 100 to 1000 nM | 1000 to 5000 nM
21 | Cn1ccc(S(=O)(=O)N2CCC3(CC2)C2=C(N=NC2)NC2=C3C(=O)CC(C)(C)[C@@H]2F)n1 [US20250313563, Compound 951708] | < 100 nM | 100 to 1000 nM
22 | Cn1ccc(S(=O)(=O)N2CCC3(CC2)C2=C(N=NC2)NC2=C3C(=O)CC(C)(C)[C@H]2F)n1 [US20250313563, Compound 951709] | < 100 nM | 100 to 1000 nM
23 | CC[C@]1(c2cccc(C3=CN(C)NC3C)c2)C2=C(N=NC2)NC2=C1C(=O)C(C)(C)C2 (stereo not given in full) [US20250313563, Compound 951710] | > 5000 nM | > 5000 nM

Row | Compound | IC50 [1] | IC50 [2]
24 | CC1(C)CC(=O)C2=C(NC3N=NC=C3C23CCCCC3)[C@H]1F (stereo not given in full) [US20250313563, Compound 951711] | < 100 nM | < 100 nM
25 | CC1(C)CC(=O)C2=C(NC3=C(CN=N3)C23CCN(S(=O)(=O)c2cccc(C(F)(F)F)c2)CC3)[C@H]1F [US20250313563, Compound 951713] | < 100 nM and 100 to 1000 nM | < 100 nM and 1000 to 5000 nM
26 | CC(C)S(=O)(=O)N1CCC2(CC1)C1=C(N=NC1)NC1=C2C(=O)CC(C)(C)[C@@H]1F [US20250313563, Compound 951714] | < 100 nM and 100 to 1000 nM | < 100 nM and 100 to 1000 nM
27 | CC1(C)CC(=O)C2=C(C1)NC1=C(CN=N1)[C@@]21CCN(S(=O)(=O)CC2CC2)C1 [US20250313563, Compound 951724] | < 100 nM | < 100 nM
28 | Cn1cc(S(=O)(=O)N2CC[C@@]3(C2)C2=C(N=NC2)NC2=C3C(=O)CC(C)(C)C2)cn1 [US20250313563, Compound 951725] | 100 to 1000 nM | 1000 to 5000 nM
29 | Cn1cc(S(=O)(=O)N2CC[C@]3(C2)C2=C(N=NC2)NC2=C3C(=O)CC(C)(C)C2)cn1 [US20250313563, Compound 951726] | < 100 nM and 1000 to 5000 nM | < 100 nM and 1000 to 5000 nM
30 | CC[C@]1(c2cccc(C(F)(F)F)c2)C2=CN=NC2NC2=C1C(=O)N(c1cnsc1)CC2 (stereo not given in full) [US20250313563, Compound 951733] | < 100 nM | 100 to 1000 nM
31 | CC[C@]1(c2cccc(N(C)c3ncccn3)c2)C2=C(CC(C)(C)NC2=O)NC2N=NC(C(F)F)=C21 (stereo not given in full) [US20250313563, Compound 951736] | < 100 nM | 100 to 1000 nM
32 | CC[C@@]1(c2cccc(N(C)c3ncccn3)c2)C2=C(CC(C)(C)NC2=O)NC2N=NC(C(F)F)=C21 (stereo not given in full) [US20250313563, Compound 951740] | < 100 nM | < 100 nM and 100 to 1000 nM
33 | CC[C@@]1(c2cccc(C(F)(F)F)c2)C2=CN=NC2NC2=C1C(=O)N(c1cnsc1)CC2 (stereo not given in full) [US20250313563, Compound 951742] | 100 to 1000 nM | 1000 to 5000 nM
34 | CC1(C)CC(=O)C2=C(C1)NC1=C(CN=N1)[C@@]21CCN(S(=O)(=O)c2ccccc2)C1 [US20250313563, Compound 951788] | < 100 nM and 100 to 1000 nM | < 100 nM and 1000 to 5000 nM
35 | COc1cccc(S(=O)(=O)N2CC[C@@]3(C2)C2=C(N=NC2)NC2=C3C(=O)CC(C)(C)C2)c1 [US20250313563, Compound 951789] | 100 to 1000 nM | 100 to 1000 nM
36 | COc1cccc(S(=O)(=O)N2CC[C@]3(C2)C2=C(N=NC2)NC2=C3C(=O)CC(C)(C)C2)c1 [US20250313563, Compound 951790] | < 100 nM | < 100 nM
37 | CC[C@@]1(c2cccc(-c3cnn(CC4CCOC4)c3)c2)C2=CN=NC2NC2=C1C(=O)NC(C)(C)C2 (stereo not given in full) [US20250313563, Compound 951836] | 100 to 1000 nM | 1000 to 5000 nM
38 | CC[C@@]1(c2cccc(-c3cnn(-c4ccccc4)c3C(F)(F)F)c2)C2=CN=NC2NC2=C1C(=O)NC(C)(C)C2 (stereo not given in full) [US20250313563, Compound 951837] | 100 to 1000 nM | 100 to 1000 nM
39 | CC[C@@]1(c2cccc(-c3cnn(Cc4ccc(OC)cc4)c3)c2)C2=CN=NC2NC2=C1C(=O)NC(C)(C)C2 (stereo not given in full) [US20250313563, Compound 951838] | 100 to 1000 nM | 1000 to 5000 nM
40 | CC1(C)CC(=O)C2=C(NC3=C(CN=N3)C23CCN(S(=O)(=O)c2ccccc2C(F)F)CC3)[C@H]1F [US20250313563, Compound 951839] | < 100 nM | 100 to 1000 nM
41 | CC[C@@]1(c2cccc(-c3cnn(Cc4cccc(F)c4F)c3)c2)C2=CN=NC2NC2=C1C(=O)NC(C)(C)C2 (stereo not given in full) [US20250313563, Compound 951840] | < 100 nM | 100 to 1000 nM
42 | CC[C@@]1(c2cccc(-c3cc(C(C)C)nn3C)c2)C2=CN=NC2NC2=C1C(=O)NC(C)(C)C2 (stereo not given in full) [US20250313563, Compound 951842] | 100 to 1000 nM | 1000 to 5000 nM
43 | CC[C@@]1(c2cccc(-c3cc(C(C)(C)C)nn3C)c2)C2=CN=NC2NC2=C1C(=O)NC(C)(C)C2 (stereo not given in full) [US20250313563, Compound 951843] | 100 to 1000 nM | > 5000 nM
44 | CC[C@@]1(c2cccc(-c3c(C#N)c(C)nn3C)c2)C2=CN=NC2NC2=C1C(=O)NC(C)(C)C2 (stereo not given in full) [US20250313563, Compound 951844] | < 100 nM | 100 to 1000 nM
45 | CC[C@]1(c2cccc(-c3cc(C)nn3-c3ccccc3)c2)C2=CN=NC2NC2=C1C(=O)NC(C)(C)C2 (stereo not given in full) [US20250313563, Compound 951845] | 100 to 1000 nM | 100 to 1000 nM
